Measured values from patent US5405857A, “3-substituted 1,2,3,4,-oxatriazole-5-imine compounds, a process for the preparation thereof and a pharmaceutical preparation containing said compounds” (A/S GEA Farmaceutisk Fabrik, priority 1991, dated 1995).

Target: T1, soluble guanylate cyclase (Homo sapiens, UniProt Q02153)
T1 construct: The guanylate cyclase activity in the supernatant after incubation with and without the test substance; endogenous in cells; host or cells: human blood platelets, supernatant of homogenate
T1 sequence (Q02153 1-619): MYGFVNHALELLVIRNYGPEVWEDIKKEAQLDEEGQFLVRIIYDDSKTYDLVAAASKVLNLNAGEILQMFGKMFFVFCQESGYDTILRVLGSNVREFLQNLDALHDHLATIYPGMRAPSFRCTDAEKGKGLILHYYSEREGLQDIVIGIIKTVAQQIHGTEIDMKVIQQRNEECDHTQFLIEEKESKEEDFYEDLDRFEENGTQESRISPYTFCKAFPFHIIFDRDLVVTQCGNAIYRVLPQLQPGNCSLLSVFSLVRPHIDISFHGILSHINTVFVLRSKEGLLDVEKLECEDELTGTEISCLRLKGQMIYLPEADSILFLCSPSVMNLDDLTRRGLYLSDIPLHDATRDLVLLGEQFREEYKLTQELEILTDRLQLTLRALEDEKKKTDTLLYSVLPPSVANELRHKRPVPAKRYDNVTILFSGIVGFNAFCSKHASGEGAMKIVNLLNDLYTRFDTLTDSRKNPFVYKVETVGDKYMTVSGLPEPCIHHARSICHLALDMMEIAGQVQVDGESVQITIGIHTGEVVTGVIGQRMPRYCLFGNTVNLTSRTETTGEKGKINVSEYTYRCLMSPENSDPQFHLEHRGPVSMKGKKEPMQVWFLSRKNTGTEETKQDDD
T1 sequence (Q02108 1-690 partner): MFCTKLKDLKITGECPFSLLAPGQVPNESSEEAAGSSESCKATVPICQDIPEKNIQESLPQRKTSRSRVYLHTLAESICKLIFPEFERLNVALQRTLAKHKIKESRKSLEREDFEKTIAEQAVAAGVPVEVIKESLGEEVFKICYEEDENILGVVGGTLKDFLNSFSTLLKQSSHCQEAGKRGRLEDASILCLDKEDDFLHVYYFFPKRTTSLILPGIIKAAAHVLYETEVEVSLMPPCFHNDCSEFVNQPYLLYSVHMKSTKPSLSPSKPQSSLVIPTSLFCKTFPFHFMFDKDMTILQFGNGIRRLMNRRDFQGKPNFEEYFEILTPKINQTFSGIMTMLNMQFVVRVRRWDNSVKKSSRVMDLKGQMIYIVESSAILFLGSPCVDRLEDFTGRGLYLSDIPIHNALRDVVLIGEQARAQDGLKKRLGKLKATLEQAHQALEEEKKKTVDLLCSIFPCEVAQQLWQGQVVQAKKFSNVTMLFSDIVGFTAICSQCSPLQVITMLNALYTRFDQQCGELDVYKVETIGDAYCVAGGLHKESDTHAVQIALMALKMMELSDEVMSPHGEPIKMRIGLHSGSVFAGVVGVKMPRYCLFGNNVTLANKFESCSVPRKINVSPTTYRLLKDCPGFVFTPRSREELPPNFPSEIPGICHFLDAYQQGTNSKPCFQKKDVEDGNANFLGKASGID
Test: Stimulation of guanylate cyclase from blood platelets (RIA)
Format: biochemical
Conditions: 37° C.

COc1ccc(Cl)cc1-[n+]1noc([NH-])n1 [Example 20]
Guanylate cyclase activity (0.01 μM): 2225 pmole c-GMP/mg prot. × 15 minutes
Guanylate cyclase activity (10 μm (so in the source)): 47298 pmole c-GMP/mg prot. × 15 minutes
